Source: patent publication US10544113B2 (priority 2016, dated 2020)
pEC50: −log10 of the molar value. Read-outs that look alike come from different tables or passages of the source.

Target: mu-opioid receptor (MOR) (Homo sapiens (Human), UniProt P35372)
Experiment: cell-based
Conditions: combined with a MOR antagonist; for AUC: AUC of [Ca2+]i fluorescence, CHO-K1/MOR/Gα15 cells
Experimental: In an exemplary in vitro screening method for identifying antagonist-to-agonist allosteric modifiers of a MOR, cells that express a MOR are treated with a test compound and a MOR antagonist in a cellular calcium fluorescent assay and fluorescence intensity is then measured to determine whether the MOR is activated. A test compound is identified as an antagonist-to-agonist allosteric modifier of the MOR if the MOR is activated.
EC50 herein refers to the concentration of a compound that induces a response halfway between the baseline and the maximum after a specified exposure time. AUC refers to the area under the response curve, an indication of the compound's capability of activating a MOR when combined with a MOR antagonist.
Human embryonic kidney 293 (HEK-293) cells constitutively expressing MOR (HEK-MOR) and DOR (HEK-DOR) (kindly provided by Dr. Ping-Yee Law, University of Minnesota, USA) were cultured in high-glucose Dulbecco's modified Eagle's medium (DMEM, GIBCO) supplemented with 400 μg/mL G418 (Sigma), 2 mM L-glutamine and P/S/F (100 units/mL penicillin, 100 μg/mL streptomycin, 10% fetal bovine serum). Chinese hamster ovary (CHO)-K1 cells, stably expressing hMOR and Gα15 (CHO-K1/MOR/Gα15), were cultured in F12 medium (GIBCO) supplemented with 10 μg/mL Hygromycin B (Invivogen), 20 μg/mL Zeocin (Invivogen) P/S/F (100 units/mL penicillin, 100 μg/mL streptomycin, 10% fetal bovine serum). The cultures were incubated at 37° C. in a humidified 5% CO2 incubator.
One day before the assay, CORNING® black with clear flat bottom 96-well assay plates were coated with a 0.1 mg/mL Poly-L-Lysine solution. CHO-K1/MOR/Gα15 cells were suspended in the F12 medium and plated at a density of ˜8×10^4 cells/well in 200 μL medium. Cells were incubated in a humidified atmosphere of 10% CO2 at 37° C. overnight so as to reach an 80-90% confluent cell monolayer before assay. At the day of assay, 150 μL medium/well was removed from plate. To each well, 50 μL FLIPR® calcium assay reagent dissolved in 1× assay buffer (HBSS: KCl 5 mM, KH2PO4 0.3 mM, NaCl 138 mM, NaHCO3 4 mM, Na2HPO4 0.3 mM, d-glucose 5.6 mM, with additional 20 mM HEPES and 13 mM CaCl2, pH 7.4), with 2.5 mM probenecid was added and the plate was incubated at 37° C. for 1 h. Compounds and other reagents were dissolved in the assay buffer. Using a FlexStationIII (Molecular Devices Corp.), the [Ca^2+]i fluorescence increases after robotic injections of compounds or other reagents were monitored every 1.52 s interval with excitation wavelength at 485 nm and with emission wavelength at 525 nm. The [Ca^2+]i fluorescence was measured up to 90 s after agonist injection.
A CHO-K1 cell line, expressing a MOR and Gα15 (GenScript), was used to set up a sensitive high-throughput screen (HTS) system. In a FLIPR® calcium assay using CHO-K1/MOR/Gα15 cells, activation of MOR elicits an intracellular calcium release leading to an increase in the relative fluorescence units (FRU). […] The HTS was performed in the absence or presence of an opioid antagonist, naloxone (25 nM), to identify antagonist to agonist allosteric modifiers (AAM).
A CHO-K1 cell line, expressing a MOR and Gα15 (GenScript), was used to set up a sensitive assay system for detecting μ-opioid receptor activation. […] The assay was performed in the presence of an opioid antagonist, i.e., naloxone (25 nM), naltrexone (20 nM), samidorphan (10 nM), naloxonazine dihydrochloride (20 nM), β-funaltrexamine hydrochloride (20 nM), cyprodime hydrochloride (500 nM), or nalmefene (20 nM), in combination with compound 58, an antagonist to agonist allosteric modifier (AAM), to identify activation of the μ-opioid receptor.

mu-opioid receptor (MOR), sequence (P35372 whole entry): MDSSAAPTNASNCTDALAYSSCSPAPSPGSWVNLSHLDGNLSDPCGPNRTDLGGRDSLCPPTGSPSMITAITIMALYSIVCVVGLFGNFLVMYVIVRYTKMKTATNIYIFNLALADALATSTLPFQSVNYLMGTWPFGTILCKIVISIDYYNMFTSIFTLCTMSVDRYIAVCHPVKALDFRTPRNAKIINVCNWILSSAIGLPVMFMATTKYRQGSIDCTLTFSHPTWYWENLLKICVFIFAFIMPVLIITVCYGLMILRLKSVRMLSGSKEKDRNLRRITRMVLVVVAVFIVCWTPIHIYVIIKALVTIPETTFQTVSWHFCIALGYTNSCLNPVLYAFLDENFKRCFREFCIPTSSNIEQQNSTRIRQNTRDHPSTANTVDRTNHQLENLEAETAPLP

Structure (SMILES)	pEC50 (EC50, CHO-K1/MOR/Gα15 cells)	FLIPR Ca^2+ AUC	pEC50 (read-out: FLIPR Ca^2+ EC50)	AUC
CCCNC(=O)c1ccc(N2C(=O)CSC2c2ccc(F)cc2)c(C)c1 (stereo not shown) [Example 334]	> 5.00	9672	5.24	–
Cc1cc(C(=O)NC2CCC2)ccc1N1C(=O)CSC1c1ccc(F)cc1 (stereo not shown) [Example 337]	> 5.00	8936	6.52	–
Cc1cc(C(=O)OCOC(=O)C(C)(C)C)ccc1N1C(=O)CSC1c1ccc(F)cc1 (stereo not shown) [Example 273]	> 5.00	12265	5.24	–
Cc1cc(C(=O)NS(=O)(=O)Cc2cccc(F)c2)ccc1N1C(=O)CSC1c1ccc(F)cc1 (stereo not shown) [Example 177]	–	16276	5.66	–
COc1ccccc1NC(=O)c1ccc(N2C(=O)CSC2c2ccc(F)cc2)c(C)c1 (stereo not shown) [Example 373]	–	12223	4.87	more than 5000
Cc1cc(C(=O)NS(=O)(=O)c2ccc(OC(F)(F)F)cc2)ccc1N1C(=O)CSC1c1ccc(F)cc1 (stereo not shown) [Example 189]	–	9544	5.96	–
COc1c(F)cc(F)cc1N1C(=O)CSC1c1ccc(F)cc1 (stereo not shown) [Example 11, 3-(3,5-Difluoro-2-methoxyphenyl)-2-(4-fluorophenyl)thiazolidin-4-one]	> 5.00	–	–	–
CC(=O)COC(=O)c1ccc(N2C(=O)CSC2c2ccc(F)cc2)c(C)c1 (stereo not shown) [Example 268]	–	12787	5.42	–
Cc1cc(C(=O)N2CC[C@@H](N(C)C)C2)ccc1N1C(=O)CSC1c1ccc(F)cc1 (stereo partly shown) [Example 349]	–	11923	5.00	–
Cc1cc(C(=O)NS(=O)(=O)C(F)(F)F)ccc1N1C(=O)CSC1c1ccc(F)cc1 (stereo not shown) [Example 175]	–	13866	5.80	–
Cc1cc(F)ccc1N1C(=O)CSC1c1ccc(F)cc1 (stereo not shown) [Example 110]	–	6308	5.42	–
Cc1cc(C(=O)NS(=O)(=O)c2ccc(C#N)cc2)ccc1N1C(=O)CSC1c1ccc(F)cc1 (stereo not shown) [Example 187]	–	12927	5.48	–
Cc1ccc(Cl)cc1N1C(=O)CSC1c1ccc(F)cc1 (stereo not shown) [Example 147]	> 5.00	11516	5.49	more than 5000
Cc1cc(C(=O)NC2CCCC2)ccc1N1C(=O)CSC1c1ccc(F)cc1 (stereo not shown) [Example 338]	> 5.00	9215	5.36	–
Cc1cc(-c2nnn[nH]2)ccc1N1C(=O)CSC1c1ccc(F)cc1 (stereo not shown) [Example 221]	–	8284	6.70	–
Cc1cc(C(=O)NS(=O)(=O)C(C)C)ccc1N1C(=O)CSC1c1ccc(F)cc1 (stereo not shown) [Example 165]	–	11927	4.65	more than 5000
Cc1cc(C(=O)NCCN(C)C)ccc1N1C(=O)CSC1c1ccc(F)cc1 (stereo not shown) [Example 340]	–	9445	5.00	–
CCOCCOC(=O)c1ccc(N2C(=O)CSC2c2ccc(F)cc2)c(C)c1 (stereo not shown) [Example 281]	–	9792	5.35	–
COC(=O)c1ccc(N2C(=O)CSC2c2ccsc2)c(C)c1 (stereo not shown) [Example 648, Methyl 3-methyl-4-[4-oxo-2-(thiophen-3-yl)-1,3-thiazolidin-3-yl]benzoate]	> 5.00	9356	5.70	more than 5000
Cc1cc(C(=O)NS(=O)(=O)C2CCCCC2)ccc1N1C(=O)CSC1c1ccc(F)cc1 (stereo not shown) [Example 171]	> 5.00	10272	5.43	more than 5000
Cc1cc(C(=O)O)ccc1N1C(=O)CSC1c1cccc(F)c1 (stereo not shown) [Example 60]	–	20700	5.96	–
Cc1ccc(F)cc1N1C(=O)CSC1c1cc(F)cc(F)c1 (stereo not shown) [Example 122]	–	7010	5.44	more than 5000
Cc1nnc(-c2ccc(N3C(=O)CSC3c3ccc(F)cc3)c(C)c2)o1 (stereo not shown) [Example 227]	–	15410	5.26	–
